Assay results from patent US10421759B2, “Fused bicyclic compounds for the treatment of disease” (AKARNA THERAPEUTICS, LTD., priority 2015, dated 2019).

Legend:
FXR = target: T1, FXR (Homo sapiens, UniProt Q96RI1); experiment: FXR Agonist Tranactivation Assay (luciferase reporter, CV-1 cells); format: cell-based; conditions: at 10 μM; CV-1 cells cotransfected with pCMV6-NR1H4 (FXR), pCMV6-RXRA and pEcREX7-TK-Luc; positive control 10 uM XL-335; 20 hours
T1 construct: expressed in transfected cells; host or cells: CV-1 cells, transient cotransfection
T1 sequence (Q96RI1 1-486): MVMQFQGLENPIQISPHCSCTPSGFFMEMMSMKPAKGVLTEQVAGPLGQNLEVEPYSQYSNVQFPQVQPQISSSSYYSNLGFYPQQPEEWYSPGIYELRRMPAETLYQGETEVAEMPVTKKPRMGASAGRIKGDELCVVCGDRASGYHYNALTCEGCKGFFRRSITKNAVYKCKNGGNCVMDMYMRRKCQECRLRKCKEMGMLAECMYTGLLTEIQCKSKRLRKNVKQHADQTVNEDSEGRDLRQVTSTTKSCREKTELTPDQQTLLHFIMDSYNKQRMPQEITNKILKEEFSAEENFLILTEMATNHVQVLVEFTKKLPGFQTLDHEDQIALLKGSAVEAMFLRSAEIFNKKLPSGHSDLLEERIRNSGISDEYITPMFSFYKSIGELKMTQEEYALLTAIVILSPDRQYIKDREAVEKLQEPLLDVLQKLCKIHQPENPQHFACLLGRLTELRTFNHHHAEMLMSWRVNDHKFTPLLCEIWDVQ
T1 sequence (P19793 1-462 partner): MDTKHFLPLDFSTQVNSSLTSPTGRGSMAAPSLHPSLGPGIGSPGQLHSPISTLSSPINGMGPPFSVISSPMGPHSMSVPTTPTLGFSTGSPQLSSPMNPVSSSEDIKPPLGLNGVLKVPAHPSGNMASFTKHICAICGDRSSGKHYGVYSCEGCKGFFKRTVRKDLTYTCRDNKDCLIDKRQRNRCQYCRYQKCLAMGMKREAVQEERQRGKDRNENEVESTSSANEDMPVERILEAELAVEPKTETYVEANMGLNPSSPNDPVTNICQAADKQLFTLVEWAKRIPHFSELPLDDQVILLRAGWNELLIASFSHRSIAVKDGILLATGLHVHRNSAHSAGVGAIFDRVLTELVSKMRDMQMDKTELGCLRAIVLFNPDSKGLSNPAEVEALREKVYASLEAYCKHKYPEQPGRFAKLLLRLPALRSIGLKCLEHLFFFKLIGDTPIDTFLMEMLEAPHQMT
Procedure: CV-1 cells were transiently cotransfected with pCMV6-NR1H4 (FXR), pCMV6-RXRA and reporter plasmid pEcREX7-TK-Luc. Five hours after transfection, cells were trypsinized and dispensed into 96-well plates at a concentration of 10,000 cells per well.
Compound Dilution and Addition: Starting from 3.33 mM of compound in DMSO solution a 10-point 3-fold serial dilution was made by diluting 5 μl of compound into 10 μl of DMSO. The serially diluted compound was then diluted 1:33 into DMEM. This medium was then diluted ten-fold into the culture medium with the cells (10 μl/well). All concentration points are assayed in duplicate. Plates were incubated at 37° C. for 20 hours.
Luciferase activity Readout: After the incubation 20 μl of culture medium were removed from each well and mixed with 50 μl of assay solution (Pierce™ Gaussia Luciferase Flash Assay Kit). The luminescence was measured immediately after addition of the Luc substrate with an Envision microplate reader.
Data Reduction and Analysis: The raw data was uploaded to CDD and dose-response curves were generated using the Levenberg-Marquardt algorithm integrated into CDD. As a positive control 10 uM XL-335 and as a negative control DMSO is included on each plate and used to normalize the data with the CDD built-in normalization function.

Mouse Cyp7A1 = experiment: Gene Expression Assay (liver qPCR after p.o. dosing); format: in vivo; conditions: C57BL/6 mice, 10 mg/kg p.o., liver collected 4 hours post dosing
Procedure: (§1) C57BL/6 mice (3 per group) were dosed p.o. with 10 mg/kg of compound 20. Livers were collected at 4 hours post dosing and transferred into RNALater solution immediately. Tissues were stored at 4° C. until RNA isolation. RNA was isolated, quantified and amplified; qPCR was performed using SuperScript® III Platinum® SYBR®Green One-Step qRT-PCR Kit (Cat no. 11736-051). Primers used are as listed: Mouse Cyp7A1: For: (SEQ. ID NO: 1) [NT] Rev: (SEQ. ID NO: 2) [NT]; Mouse SHP: For: (SEQ. ID NO: 3) [NT] Rev: (SEQ. ID NO: 4) [NT]; Mouse GAPDH: For: (SEQ. ID NO: 5) [NT] Rev: (SEQ. ID NO: 6) [NT]

Mouse SHP = experiment: as above; format: in vivo; conditions: C57BL/6 mice, 10 mg/kg p.o., liver collected 4 hours post dosing
Procedure: as §1, with “1) […]” for “1) [NT]”, “2) AGTGGTGGCAAAATTCCCA;” for “2) [NT];”, “3) […]” for “3) [NT]”, “4) AGCCTCCTGTTGCAGGTGT;” for “4) [NT];”, “5) […]” for “5) [NT]”, “6) […].” for “6) [NT]”

| Structure (SMILES) | activation compared to the positive control (FXR) | Avg. % mRNA induction, CYP7a (Mouse Cyp7A1) | Avg. % mRNA induction, SHP (Mouse SHP) |
| --- | --- | --- | --- |
| CC(C)OC(=O)C1=CN(C(=O)c2ccc(OCC[N+]3(C)CCOCC3)cc2)CC(C)(C)c2c(C(F)(F)F)n[nH]c21 [compound 13] | inactive |  |  |
| CCOC(=O)C1=CN(C(=O)N2CC[N+](C)(C)CC2)CC(C)(C)c2c1[nH]c1ccccc21.[I-] [compound 20, 4-(5-(ethoxycarbonyl)-1,1-dimethyl-1,2,3,6-tetrahydroazepino[4,5-b]indole-3-carbonyl)-1,1-dimethylpiperazin-1-ium iodide] | 86% | 57% | 266% |
